Where two headings read alike, the source gives them in different places.
Key:
Format in all cases: binding
[1] = test system: […] (SEQ ID NO: 3) amyloid peptide; assay: Coordination at higher peptide concentration (amyloid gel, 5 mg/mL), inhibitor capturing; details: for capturing efficiency: relative to 2nd pellet wash, UV-Vis; for AD compound captured, Wash 1 / AD compound captured, Wash 2 / AD compound captured, Wash 3: 1000 μM inhibitor solution added; for AD compound captured, Wash 1: 1st pellet wash; for AD compound captured, Wash 2: 2nd pellet wash; for AD compound captured, Wash 3: 3rd pellet wash
Experimental: Amyloid Fibrils Preparation and Characterization. For the formation of fibrils, the amyloid peptides were dispersed in DI water at a 10 mg/ml, vortexed, heated at 60° C. for 30 sec, and sonicated for 15 mins (this cycle was repeated 10 times overall), and finally left overnight at room temperature to form a hydrogel. […] That was confirmed with Field Emission Scanning Electron Microscopy (FESEM) and Congo Red staining (CR).
Coordination Studies at Higher Peptide Concentrations and Inhibitor Capturing. […] (SEQ ID NO: 4) or […] (SEQ ID NO: 3) amyloid peptide gels (10 mg/mL, 1 mL volume) and was left to physically complex under stirring overnight (the final peptide concentration was diluted to 5 mg/mL). A control using 1 mL of 0.1 M PBS (no inhibitor) was also prepared. The complexed amyloid/inhibitor materials were then transferred to 5 mL conical Eppendorf tubes, and centrifuged for 15 mins at 4,400 rpm (14° C.). The supernatant was decanted, and 2 mL of DI water were subsequently added to wash the pellet (followed by vortexing until obtaining a homogenous dispersion) in order to remove any unbound inhibitor. The samples were then centrifuged again at the same conditions so as to pelletize the amyloid materials, and the supernatant was decanted. Another 2 mL of DI water were then added into the pellet, the mixture was vortexed, and the physically bound inhibitor into the amyloid peptides was quantified by UV-Vis between 200-600 nm and MS. This step is denoted as wash 1 in our study. Two additional pellet purification cycles were realized with replacement of the decanted volume each time with 2 mL of fresh DI water (denoted as wash 2 and wash 3 respectively). The inhibitor-containing amyloid peptides were normalized at 400 nm over the respective no inhibitor-containing ones at the specific washing step.

[2] = test system: […] (SEQ ID NO: 4) amyloid peptide; details: for capturing efficiency: relative to 2nd pellet wash, UV-Vis; for AD compound captured, Wash 1 / AD compound captured, Wash 2 / AD compound captured, Wash 3: 1000 μM inhibitor solution added; for AD compound captured, Wash 1: 1st pellet wash; for AD compound captured, Wash 2: 2nd pellet wash; for AD compound captured, Wash 2 / AD compound captured, Wash 3: room temperature; for AD compound captured, Wash 3: 3rd pellet wash
Experimental: Amyloid Fibrils Preparation and Characterization. For the formation of fibrils, the amyloid peptides were dispersed in DI water at a 10 mg/ml, vortexed, heated at 60° C. for 30 sec, and sonicated for 15 mins (this cycle was repeated 10 times overall), and finally left overnight at room temperature to form a hydrogel.
A control using 1 mL of 0.1 M PBS (no inhibitor) was also prepared. The complexed amyloid/inhibitor materials were then transferred to 5 mL conical Eppendorf tubes, and centrifuged for 15 mins at 4,400 rpm (14° C.). The supernatant was decanted, and 2 mL of DI water were subsequently added to wash the pellet (followed by vortexing until obtaining a homogenous dispersion) in order to remove any unbound inhibitor. The samples were then centrifuged again at the same conditions so as to pelletize the amyloid materials, and the supernatant was decanted. Another 2 mL of DI water were then added into the pellet, the mixture was vortexed, and the physically bound inhibitor into the amyloid peptides was quantified by UV-Vis between 200-600 nm and MS. This step is denoted as wash 1 in our study. Two additional pellet purification cycles were realized with replacement of the decanted volume each time with 2 mL of fresh DI water (denoted as wash 2 and wash 3 respectively). The inhibitor-containing amyloid peptides were normalized at 400 nm over the respective no inhibitor-containing ones at the specific washing step.

[3] = test system: […] (SEQ ID NO: 3) amyloid peptide; assay: Amyloid peptide/inhibitor coordination in dilute solution (1 mg/mL), drug captured after pellet washings; details: for AD compound captured, Wash 1 / AD compound captured, Wash 2 / AD compound captured, Wash 3: 150 μM inhibitor loaded; for AD compound captured, Wash 1: 1st pellet wash; for AD compound captured, Wash 2: 2nd pellet wash; for AD compound captured, Wash 3: 3rd pellet wash; for fraction of the 150 μM loaded drug incorporated into the peptide: UV-Vis, first wash
Experimental: Amyloid Peptide/Inhibitor Coordination Studies in Dilute Solutions. […] Subsequently, 1 mL of DI water was added to wash the pellet (followed by vortexing until obtaining a homogenous dispersion) in order to remove any unbound inhibitor. The samples were then centrifuged again at the same conditions so as to pelletize the amyloid materials, and the supernatant was decanted. Another 1 mL of DI water was then added into the pellet, the mixture was vortexed, and the physically bound inhibitor into the dilute amyloid peptide dispersions was quantified by UV-Vis between 200-600 nm and MS. This step is denoted as wash 1 in our study. Two additional pellet purification cycles were realized with replacement of the decanted volume each time with 1 mL of fresh DI water (denoted as wash 2 and wash 3 respectively). The inhibitor-containing peptides amyloids were normalized at 400 nm over the respective no inhibitor-containing amyloid peptides at the specific washing step, and the measured inhibitor peak values (at 315 nm and 323 nm) were subtracted from that of the amyloid peptide carriers at the same wavelength and concentration. The amount of inhibitors coordinated with the amyloid peptide carriers was quantified based on a calibration curve by both UV-Vis and MS.
The peak at 315 nm was selected for inhibitor quantification due the absence of peaks at that range for both peptides. […] However, the peak at 315 nm was selected for inhibitor quantification, and the following equation was used for both peptides: A315=A315 ([…]/Donepezil)−A315 ([…])
The peak at 323 nm was used for inhibitor quantification due the absence of peaks at that range for both peptides.

[4] = FYTGAIIGNYF gel 5 mg/mL, by UV-Vis
[5] = YFTGAIIGNFY gel 5 mg/mL, by UV-Vis

COc1cc2c(cc1OC)C(=O)C(CC1CCN(Cc3ccccc3)CC1)C2 (stereo not drawn) [donepezil]
capturing efficiency ([1]; FYTGAIIGNYF 5 mg/mL): 17% | AD compound captured, Wash 1 ([1]; FYTGAIIGNYF gel 5 mg/mL, by MS): 163 ± 4 µM | AD compound captured, Wash 2 ([1]; FYTGAIIGNYF gel 5 mg/mL, by MS): 151 ± 1 µM | AD compound captured, Wash 3 ([1]; FYTGAIIGNYF gel 5 mg/mL, by MS): 148 ± 3 µM | AD compound captured, Wash 1 [1, 4]: 187 ± 19 µM | AD compound captured, Wash 2 [1, 4]: 173 ± 33 µM | AD compound captured, Wash 3 [1, 4]: 160 ± 33 µM | capturing efficiency ([2]; YFTGAIIGNFY 5 mg/mL): 14% | AD compound captured, Wash 1 ([2]; YFTGAIIGNFY gel 5 mg/mL, by MS): 154 ± 7 µM | AD compound captured, Wash 2 ([2]; YFTGAIIGNFY gel 5 mg/mL, by MS): 141 ± 10 µM | AD compound captured, Wash 3 ([2]; YFTGAIIGNFY gel 5 mg/mL, by MS): 129 ± 24 µM | AD compound captured, Wash 1 [2, 5]: 154 ± 11 µM | AD compound captured, Wash 2 [2, 5]: 135 ± 8 µM | AD compound captured, Wash 3 [2, 5]: 117 ± 5 µM | AD compound captured, Wash 1 ([3]; FYTGAIIGNYF 1 mg/mL, by MS): 51 ± 3 µM | AD compound captured, Wash 2 ([3]; FYTGAIIGNYF 1 mg/mL, by MS): 47 ± 0 µM | AD compound captured, Wash 3 ([3]; FYTGAIIGNYF 1 mg/mL, by MS): 43 ± 4 µM | AD compound captured, Wash 1 ([3]; FYTGAIIGNYF 1 mg/mL, by UV-Vis): 33 µM | AD compound captured, Wash 1 ([3]; FYTGAIIGNYF 1 mg/mL, by UV-Vis, listed as Donepezil): 33 ± 4 µM | AD compound captured, Wash 2 ([3]; FYTGAIIGNYF 1 mg/mL, by UV-Vis): 28 ± 5 µM | AD compound captured, Wash 3 ([3]; FYTGAIIGNYF 1 mg/mL, by UV-Vis): 20 ± 5 µM | fraction of the 150 μM loaded drug incorporated into the peptide ([3]; FYTGAIIGNYF 1 mg/mL): approximately ⅕

Nc1c2c(nc3ccccc13)CCCC2 [tacrine]
capturing efficiency ([1]; […] 5 mg/mL): approximately 8% | AD compound captured, Wash 1 ([1]; […] gel 5 mg/mL, by MS): 114 ± 6 µM | AD compound captured, Wash 2 ([1]; […] gel 5 mg/mL, by MS): 102 ± 2 µM | AD compound captured, Wash 3 ([1]; […] gel 5 mg/mL, by MS): 94 ± 10 µM | AD compound captured, Wash 1 ([1]; […] gel 5 mg/mL, by UV-Vis): 104 ± 16 µM | AD compound captured, Wash 2 ([1]; […] gel 5 mg/mL, by UV-Vis): 82 ± 9 µM | AD compound captured, Wash 3 ([1]; […] gel 5 mg/mL, by UV-Vis): 72 ± 10 µM | capturing efficiency ([2]; […] 5 mg/mL): approximately 8% | AD compound captured, Wash 1 ([2]; […] gel 5 mg/mL, by MS): 98 ± 9 µM | AD compound captured, Wash 2 ([2]; […] gel 5 mg/mL, by MS): 75 ± 4 µM | AD compound captured, Wash 3 ([2]; […] gel 5 mg/mL, by MS): 63 ± 8 µM | AD compound captured, Wash 1 ([2]; […] gel 5 mg/mL, by UV-Vis): 90 ± 4 µM | AD compound captured, Wash 2 ([2]; […] gel 5 mg/mL, by UV-Vis): 80 ± 5 µM | AD compound captured, Wash 3 ([2]; […] gel 5 mg/mL, by UV-Vis): 73 ± 5 µM | AD compound captured, Wash 1 ([3]; […] 1 mg/mL, by MS): 29 ± 4 µM | AD compound captured, Wash 2 ([3]; […] 1 mg/mL, by MS): 24 ± 8 µM | AD compound captured, Wash 3 ([3]; […] 1 mg/mL, by MS): 23 ± 6 µM | AD compound captured, Wash 2 ([3]; […] 1 mg/mL, by UV-Vis): 17 ± 4 µM | AD compound captured, Wash 3 ([3]; […] 1 mg/mL, by UV-Vis): 13 ± 3 µM | fraction of the 150 μM loaded drug incorporated into the peptide ([3]; […] 1 mg/mL): approximately 1/7
